The source of these data is US7691416B2, “Methods of treating vascular disease” (priority 2002, dated 2010).

The test system of one experiment is ERK-1 and -2. The experiment can be described thus: Western blot of phosphorylated ERK in SMC. Type of experiment: cell-based. The settings on record: SMC exposed to CO (250 ppm). The source says:
(§1) Animals. Male (250-350 g) Brown Norway rats (RT1^n) were used as aortic graft donors and male (250-350 g) Lewis rats (RT11) as recipients. Dawley (400-450 g) rats were used in the balloon injury model. Adult male C57BL/6, C57/S129, p21^−/− and p53^−/− null mice were purchased from Jackson Laboratory (Bar Harbor, Me.). mkk3^(−/−) null mice were generated as described Lu et al. (EMBO. 18:1845-1857 (1999)). The inos^−/− and enos^−/− mice were bred at the University of Pittsburgh. Aortic transplant model. Aortic transplantation was performed as described in Shimizu et al. (Nat. Med. 7:738-741 (2001)). Briefly, 3 to 4 cm of descending aorta was harvested from the donor and implanted between the renal arteries and the aortic bifurcation of the recipient. Both edges of the native abdominal aorta were ligated. Balloon injury model. Balloon angioplasty was carried out as described in Murakami et al. (Atherosclerosis 157:361-368 (2001)). […] [^3H]thymidine incorporation was measured by scintillation spectroscopy and presented as mean counts/min/well. […] Areas from eight to ten captured images were calculated using digital imaging software as number of pixels corresponding to those areas. Twenty-four to forty-eight sections from each group were statistically analyzed with SPSS software version 10. […]
In general terms: A western blot detects proteins with antibodies after separation by electrophoresis.

The next experiment has as its system PAI-1. The experiment can be described thus: PAI-1 protein in transplanted aortas (immunohistology and Western blot). Type of experiment: in vivo, rat. Conditions: 56 days after transplantation.
Text: as §1

For the next experiment, the system named is rat SMC. Description: SMC proliferation, cell counts. It is filed as cell-based.
Text: as §1

The next experiment concerns p38 MAPK. The experiment can be described thus: Western blot of phosphorylated p38 MAPK in SMC. Type of experiment: cell-based, mouse. The text has this: Animals. Male (250-350 g) Brown Norway rats (RT1^n) were used as aortic graft donors and male (250-350 g) Lewis rats (RT11) as recipients. Dawley (400-450 g) rats were used in the balloon injury model. Adult male C57BL/6, C57/S129, p21^−/− and p53^−/− null mice were purchased from Jackson Laboratory (Bar Harbor, Me.). mkk3^(−/−) null mice were generated as described Lu et al. (EMBO. 18:1845-1857 (1999)). The inos^−/− and enos^−/− mice were bred at the University of Pittsburgh. Aortic transplant model. Aortic transplantation was performed as described in Shimizu et al. (Nat. Med. 7:738-741 (2001)). Briefly, 3 to 4 cm of descending aorta was harvested from the donor and implanted between the renal arteries and the aortic bifurcation of the recipient. Both edges of the native abdominal aorta were ligated. Balloon injury model. Balloon angioplasty was carried out as described in Murakami et al. (Atherosclerosis 157:361-368 (2001)). Briefly, a 2 Fr. arterial embolectomy catheter (Baxter, Chicago, Ill.) was inserted into the common carotid artery, and injury was created by inflating the balloon to 5 atmospheres of pressure for 5 minutes. The arteries were flushed and the external carotid artery was ligated, ensuring return of blood flow through the common and internal carotid arteries. Injury of the vessel wall and subsequent pathological analysis was made in a manner that was blinded to the treatment group. CO exposure. CO was delivered to animals as described in Otterbein et al. (Nat. Med. 6:422-428 (2000)). Graft donors and recipients were exposed to CO (250 ppm) for two days before transplantation and for 56 days immediately following transplantation. In the balloon injury model, rats received either no pretreatment or were exposed to CO (250 ppm) for one hour prior to injury. Following surgery rats were housed in room air for two weeks. Cells. Primary mouse and rat smooth muscle cells (SMC) were isolated and cultured as described in Laubach et al. (Proc Natl Acad Sci USA 92:10688-9 (1995)). Mouse SMC isolated from HO-1^−/− mice were obtained as described in Duckers et al. (Nat. Med. 7:693-698 (2001)). Cell treatment and reagents. Guanylate cyclase inhibitor 1H(1,2,4) oxadiazolo(4,3-a)quinoxalin-1 (ODQ; Calbiochem-Novabiochem, San Diego, Calif.; 10-100 μM) and p38 MAPK inhibitor pyridinyl imidazol SB203580 (Calbiochem; 5-20 μM) were dissolved in DMSO. […] [^3H]thymidine incorporation was measured by scintillation spectroscopy and presented as mean counts/min/well. […] Areas from eight to ten captured images were calculated using digital imaging software as number of pixels corresponding to those areas. Twenty-four to forty-eight sections from each group were statistically analyzed with SPSS software version 10. […]

Each structure is given as a SMILES string. “Also recorded” adds a separate entry of the source.

In the case of `[C-]#[O+]` [CO, carbon monoxide], in the experiment with ERK-1 and -2, the “Activation of ERK-1 and -2” value is recorded as “did not modulate”. In addition, in the experiment on PAI-1, the “PAI-1 protein expression versus allogeneic aortas transplanted in the absence of CO” value was “similar; also recorded: No decrease”. Further, in the experiment with rat SMC (cessation of CO exposure (250 ppm) on day 6), the “Reversibility of the anti-proliferative effect” value was “reversible”. For the same molecule, in the experiment with rat SMC (exposure to CO (1000 ppm, FIG. 4B)), the SMC proliferation result is listed as “suppressed”. Besides, in the experiment on p38 MAPK (CO 250 ppm), the “Time of peak p38 MAPK phosphorylation/activation after exposure” value was “four”. The “p38 MAPK phosphorylation/activation” value with p38 MAPK (SMC exposed to CO (250 ppm)) is “activated”.
